# Results as given in patent publication US20260262643A1, “HERBICIDAL BENZOXAZINES” (FMC CORPORATION, priority 2022, published 2026).
# Legend:
# barnyardgrass [1] = test: Test C preemergence; format: in vivo, Echinochloa crusgalli; details: 0 to 100 scale (0 no effect, 100 complete control); for Plant response rating, Barnyardgrass: Preemergence, 500 g ai/ha, visual rating after 10 days; for Barnyardgrass plant response rating: Test C, preemergence, 125 g ai/ha
# How it was run: (§1)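 Pre: seeds in loam/sand, directed soil spray. Post: 1–2 leaf plants, 2–10 cm. Cmpd in non-phytotoxic solvent + surfactant. Greenhouse 10 d; visual rating vs untreated, 0 = none, 100 = complete control.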
# blackgrass [2] = test: Test C preemergence; format: in vivo, Alopecurus myosuroides; details: 0 to 100 scale (0 no effect, 100 complete control); for Plant response rating, Blackgrass: Preemergence, 500 g ai/ha, visual rating after 10 days; for Blackgrass plant response rating: Test C, preemergence, 125 g ai/ha
# How it was run: as §1
# corn [3] = test: Test C preemergence; format: in vivo, Zea mays; details: 0 to 100 scale (0 no effect, 100 complete control); for Plant response rating, Corn: Preemergence, 500 g ai/ha, visual rating after 10 days; for Corn plant response rating: Test C, preemergence, 125 g ai/ha
# How it was run: as §1
# green foxtail [4] = test: Test C preemergence; format: in vivo, Setaria viridis; details: 0 to 100 scale (0 no effect, 100 complete control); for Plant response rating, Foxtail, Green: Preemergence, 500 g ai/ha, visual rating after 10 days; for Foxtail, Green plant response rating: Test C, preemergence, 125 g ai/ha
# How it was run: as §1
# kochia [5] = test: Test C preemergence; format: in vivo, Bassia scoparia; details: 0 to 100 scale (0 no effect, 100 complete control); for Plant response rating, Kochia: Preemergence, 500 g ai/ha, visual rating after 10 days; for Kochia plant response rating: Test C, preemergence, 125 g ai/ha
# How it was run: as §1
# oat, wild [6] = test: Test C preemergence; format: in vivo, Avena fatua; details: 0 to 100 scale (0 no effect, 100 complete control); for Plant response rating, Oat, Wild: Preemergence, 500 g ai/ha, visual rating after 10 days; for Oat, Wild plant response rating: Test C, preemergence, 125 g ai/ha
# How it was run: as §1
# pigweed, palmer [7] = test: Test C preemergence; format: in vivo, Amaranthus palmeri; details: 0 to 100 scale (0 no effect, 100 complete control); for Plant response rating, Pigweed, Palmer: Preemergence, 500 g ai/ha, visual rating after 10 days; for Pigweed, Palmer plant response rating: Test C, preemergence, 125 g ai/ha
# How it was run: as §1
# ragweed [8] = test: Test C preemergence; format: in vivo, Ambrosia artemisiifolia; details: 0 to 100 scale (0 no effect, 100 complete control); for Plant response rating, Ragweed: Preemergence, 500 g ai/ha, visual rating after 10 days; for Ragweed plant response rating: Test C, preemergence, 125 g ai/ha
# How it was run: as §1
# ryegrass, Italian [9] = test: Test C preemergence; format: in vivo, Lolium multiflorum; details: 0 to 100 scale (0 no effect, 100 complete control); for Plant response rating, Ryegrass, Italian: Preemergence, 500 g ai/ha, visual rating after 10 days; for Ryegrass, Italian plant response rating: Test C, preemergence, 125 g ai/ha
# How it was run: as §1
# soybean [10] = test: Test C preemergence; format: in vivo, Glycine max; details: 0 to 100 scale (0 no effect, 100 complete control); for Plant response rating, Soybean: Preemergence, 500 g ai/ha, visual rating after 10 days; for Soybean plant response rating: Test C, preemergence, 125 g ai/ha
# How it was run: as §1
# wheat [11] = test: Test C preemergence; format: in vivo, Triticum aestivum; details: 0 to 100 scale (0 no effect, 100 complete control); for Plant response rating, Wheat: Preemergence, 500 g ai/ha, visual rating after 10 days; for Wheat plant response rating: Test C, preemergence, 125 g ai/ha
# How it was run: as §1
# barnyardgrass [12] = test: Test C postemergence; format: in vivo, Echinochloa crusgalli; details: 10 days
# How it was run: as §1
# blackgrass [13] = test: Test C postemergence; format: in vivo, Alopecurus myosuroides; details: 10 days
# How it was run: as §1
# corn [14] = test: Test C postemergence; format: in vivo, Zea mays; details: 10 days
# How it was run: as §1
# green foxtail [15] = test: Test C postemergence; format: in vivo, Setaria viridis; details: 10 days
# How it was run: as §1
# kochia [16] = test: Test C postemergence; format: in vivo, Bassia scoparia; details: 10 days
# How it was run: as §1
# oat, wild [17] = test: Test C postemergence; format: in vivo, Avena fatua; details: 10 days
# How it was run: as §1
# pigweed, palmer [18] = test: Test C postemergence; format: in vivo, Amaranthus palmeri; details: 10 days
# How it was run: as §1
# ragweed [19] = test: Test C postemergence; format: in vivo, Ambrosia artemisiifolia; details: 10 days
# How it was run: as §1
# ryegrass, Italian [20] = test: Test C postemergence; format: in vivo, Lolium multiflorum; details: 10 days
# How it was run: as §1
# soybean [21] = test: Test C postemergence; format: in vivo, Glycine max; details: 10 days
# How it was run: as §1
# wheat [22] = test: Test C postemergence; format: in vivo, Triticum aestivum; details: 10 days
# How it was run: as §1
# horseweed = test: Test C postemergence; format: in vivo, Erigeron canadensis; details: 10 days
# How it was run: as §1
# barnyardgrass [23] = test: Test D flooded paddy test; format: in vivo, Echinochloa crus-galli; details: 250 g ai/ha, applied to paddy water, visual rating after 13 to 14 days, scale 0 to 100 (0 no effect, 100 complete control)
# How it was run: (§2)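 At the 2-leaf stage, floodwater 3 cm deep received the test compound; that depth persisted throughout. Plants scored visually 13 to 14 days on, 0 (no effect) to 100 (complete control), dash indicating no result.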
# ducksalad = test: Test D flooded paddy test; format: in vivo, Heteranthera limosa; details: 250 g ai/ha, applied to paddy water, visual rating after 13 to 14 days, scale 0 to 100 (0 no effect, 100 complete control)
# How it was run: as §2
# rice = test: Test D flooded paddy test; format: in vivo, Oryza sativa; details: 250 g ai/ha, applied to paddy water, visual rating after 13 to 14 days, scale 0 to 100 (0 no effect, 100 complete control)
# How it was run: as §2
# sedge, umbrella = test: Test D flooded paddy test; format: in vivo, Cyperus difformis; details: 250 g ai/ha, applied to paddy water, visual rating after 13 to 14 days, scale 0 to 100 (0 no effect, 100 complete control)
# How it was run: as §2
# [24] = 125 g ai/ha, postemergence, 0 to 100 scale, 0 no effect, 100 complete control
# [25] = Postemergence, 500 g ai/ha, visual 0 to 100 scale (0 no effect, 100 complete control)
compound,measurement,setting,value
COc1cc(C(=O)N2C[C@H](C)Oc3c(Cl)cccc32)cc(-n2cnc(C)n2)c1 [Compound 215],"Plant response rating, Barnyardgrass",barnyardgrass [1],100
same,Barnyardgrass plant response rating,barnyardgrass [1],80
same,"Plant response rating, Blackgrass",blackgrass [2],90
same,Blackgrass plant response rating,blackgrass [2],70
same,"Plant response rating, Corn",corn [3],60
same,Corn plant response rating,corn [3],30
same,"Plant response rating, Foxtail, Green",green foxtail [4],100
same,"Foxtail, Green plant response rating",green foxtail [4],100
same,"Plant response rating, Kochia",kochia [5],100
same,Kochia plant response rating,kochia [5],90
same,"Plant response rating, Oat, Wild","oat, wild [6]",90
same,"Oat, Wild plant response rating","oat, wild [6]",50
same,"Plant response rating, Pigweed, Palmer","pigweed, palmer [7]",100
same,"Pigweed, Palmer plant response rating","pigweed, palmer [7]",100
same,"Plant response rating, Ragweed",ragweed [8],30
same,Ragweed plant response rating,ragweed [8],0
same,"Plant response rating, Ryegrass, Italian","ryegrass, Italian [9]",100
same,"Ryegrass, Italian plant response rating","ryegrass, Italian [9]",90
same,"Plant response rating, Soybean",soybean [10],100
same,Soybean plant response rating,soybean [10],80
same,"Plant response rating, Wheat",wheat [11],90
same,Wheat plant response rating,wheat [11],20
same,"Plant response rating, Barnyardgrass",barnyardgrass [12]; [24],60
same,"Plant response rating, Barnyardgrass",barnyardgrass [12]; [25],70
same,"Plant response rating, Blackgrass",blackgrass [13]; [24],90
same,"Plant response rating, Blackgrass",blackgrass [13]; [25],90
same,"Plant response rating, Corn",corn [14]; [24],70
same,"Plant response rating, Corn",corn [14]; [25],90
same,"Plant response rating, Foxtail, Green",green foxtail [15]; [24],90
same,"Plant response rating, Foxtail, Green",green foxtail [15]; [25],90
same,"Plant response rating, Kochia",kochia [16]; [24],80
same,"Plant response rating, Kochia",kochia [16]; [25],90
same,"Plant response rating, Oat, Wild","oat, wild [17]; [24]",30
same,"Plant response rating, Oat, Wild","oat, wild [17]; [25]",50
same,"Plant response rating, Pigweed, Palmer","pigweed, palmer [18]; [24]",90
same,"Plant response rating, Pigweed, Palmer","pigweed, palmer [18]; [25]",100
same,"Plant response rating, Ragweed",ragweed [19]; [24],60
same,"Plant response rating, Ragweed",ragweed [19]; [25],70
same,"Plant response rating, Ryegrass, Italian","ryegrass, Italian [20]; [24]",70
same,"Plant response rating, Ryegrass, Italian","ryegrass, Italian [20]; [25]",90
same,"Plant response rating, Soybean",soybean [21]; [24],100
same,"Plant response rating, Soybean",soybean [21]; [25],100
same,"Plant response rating, Wheat",wheat [22]; [24],30
same,"Plant response rating, Wheat",wheat [22]; [25],70
same,"Plant response rating, Horseweed",horseweed; [24],0
same,"Plant response rating, Horseweed",horseweed; [25],70
same,"Plant response rating, Barnyardgrass (Flood)",barnyardgrass [23],50
same,"Plant response rating, Ducksalad (Flood)",ducksalad,100
same,"Plant response rating, Rice (Flood)",rice,55
same,"Plant response rating, Sedge, Umbrella (Flood)","sedge, umbrella",100
CCc1ncn(-c2ccc(OC)c(C(=O)N3C[C@H](C)Oc4c(C)cccc43)c2)n1 [Compound 211],"Plant response rating, Barnyardgrass",barnyardgrass [1],100
same,Barnyardgrass plant response rating,barnyardgrass [1],100
same,"Plant response rating, Blackgrass",blackgrass [2],90
same,Blackgrass plant response rating,blackgrass [2],90
same,"Plant response rating, Corn",corn [3],70
same,Corn plant response rating,corn [3],70
same,"Plant response rating, Foxtail, Green",green foxtail [4],100
same,"Foxtail, Green plant response rating",green foxtail [4],0
same,"Plant response rating, Kochia",kochia [5],100
same,Kochia plant response rating,kochia [5],100
same,"Plant response rating, Oat, Wild","oat, wild [6]",90
same,"Oat, Wild plant response rating","oat, wild [6]",70
same,"Plant response rating, Pigweed, Palmer","pigweed, palmer [7]",100
same,"Pigweed, Palmer plant response rating","pigweed, palmer [7]",100
same,"Plant response rating, Ragweed",ragweed [8],100
same,Ragweed plant response rating,ragweed [8],100
same,"Plant response rating, Ryegrass, Italian","ryegrass, Italian [9]",100
same,"Ryegrass, Italian plant response rating","ryegrass, Italian [9]",100
same,"Plant response rating, Soybean",soybean [10],100
same,Soybean plant response rating,soybean [10],100
same,"Plant response rating, Wheat",wheat [11],80
same,Wheat plant response rating,wheat [11],80
same,"Plant response rating, Barnyardgrass",barnyardgrass [12]; [24],80
same,"Plant response rating, Barnyardgrass",barnyardgrass [12]; [25],100
same,"Plant response rating, Blackgrass",blackgrass [13]; [24],90
same,"Plant response rating, Blackgrass",blackgrass [13]; [25],100
same,"Plant response rating, Corn",corn [14]; [24],70
same,"Plant response rating, Corn",corn [14]; [25],90
same,"Plant response rating, Foxtail, Green",green foxtail [15]; [24],90
same,"Plant response rating, Foxtail, Green",green foxtail [15]; [25],90
same,"Plant response rating, Kochia",kochia [16]; [24],70
same,"Plant response rating, Kochia",kochia [16]; [25],90
same,"Plant response rating, Oat, Wild","oat, wild [17]; [24]",70
same,"Plant response rating, Oat, Wild","oat, wild [17]; [25]",90
same,"Plant response rating, Pigweed, Palmer","pigweed, palmer [18]; [24]",90
same,"Plant response rating, Pigweed, Palmer","pigweed, palmer [18]; [25]",100
same,"Plant response rating, Ragweed",ragweed [19]; [24],50
same,"Plant response rating, Ragweed",ragweed [19]; [25],70
same,"Plant response rating, Ryegrass, Italian","ryegrass, Italian [20]; [24]",70
same,"Plant response rating, Ryegrass, Italian","ryegrass, Italian [20]; [25]",90
same,"Plant response rating, Soybean",soybean [21]; [24],100
same,"Plant response rating, Soybean",soybean [21]; [25],100
same,"Plant response rating, Wheat",wheat [22]; [24],70
same,"Plant response rating, Wheat",wheat [22]; [25],90
same,"Plant response rating, Horseweed",horseweed; [24],80
same,"Plant response rating, Horseweed",horseweed; [25],90
same,"Plant response rating, Barnyardgrass (Flood)",barnyardgrass [23],55
same,"Plant response rating, Ducksalad (Flood)",ducksalad,100
same,"Plant response rating, Rice (Flood)",rice,50
same,"Plant response rating, Sedge, Umbrella (Flood)","sedge, umbrella",100
